# Results as given in ChEMBL document CHEMBL1201862, “PubChem BioAssay data set” (2004).
#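 Grown in 96-well plates, cells were treated for 48 hours with each compound at five concentrations. Insufficient inhibition: endpoint recorded as highest concentration tested. GI50 = concentration required for 50% inhibition of growth.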 Activity calls are given as the source filed them. Cut-off read from the data, not from the text of the source: active = GI50 up to about 1.1 µM and inactive = higher.
# Experiments:
# Assay in all cases: NCI anticancer screen, dose series, 48 h
# [1] = test system: 786-0
# [2] = test system: A549
# [3] = test system: ACHN
# [4] = test system: CAKI-1
# [5] = test system: CCRF-CEM
# [6] = test system: COLO 205
# [7] = test system: DLD-1
# [8] = test system: DMS-273
# [9] = test system: EKVX
# [10] = test system: HCC 2998
# [11] = test system: HCT-116
# [12] = test system: HL-60
# [13] = test system: HOP-18
# [14] = test system: HOP-62
# [15] = test system: HOP-92
# [16] = test system: HT-29
# [17] = test system: IGROV-1
# [18] = test system: K562
# [19] = test system: KM-20L2
# [20] = test system: KM12
# [21] = test system: LOX IMVI
# [22] = test system: LXFL 529
# [23] = test system: M14
# [24] = test system: M19-MEL
# [25] = test system: MOLT-4
# [26] = test system: Malme-3M
# [27] = test system: NCI-H226
# [28] = test system: NCI-H23
# [29] = test system: NCI-H460
# [30] = test system: NCI-H522
# [31] = test system: OVCAR-3
# [32] = test system: OVCAR-4
# [33] = test system: OVCAR-5
# [34] = test system: OVCAR-8
# [35] = test system: RPMI-8226
# [36] = test system: RXF 393
# [37] = test system: RXF 631
# [38] = test system: SF-268
# [39] = test system: SF-295
# [40] = test system: SF-539
# [41] = test system: SK-MEL-28
# [42] = test system: SK-MEL-2
# [43] = test system: SK-MEL-5
# [44] = test system: SK-OV-3
# [45] = test system: SN12C
# [46] = test system: SNB-19
# [47] = test system: SNB-75
# [48] = test system: SNB-78
# [49] = test system: SR
# [50] = test system: SW-620
# [51] = test system: TK-10
# [52] = test system: U-251
# [53] = test system: UACC-257
# [54] = test system: UACC-62
# [55] = test system: UO-31
# [56] = test system: XF498
smiles,measurement,setting,value
CCCCCCCCCCCCNC1(C)CNCCCNCCNCCCNC1,GI50,[1],1750 nM (inactive)
same,GI50,[2],1760 nM (inactive)
same,GI50,[3],1780 nM (inactive)
same,GI50,[4],1870 nM (inactive)
same,GI50,[5],1380 nM (inactive)
same,GI50,[6],1740 nM (inactive)
same,GI50,[7],1670 nM (inactive)
same,GI50,[8],475 nM (active)
same,GI50,[9],3560 nM (inactive)
same,GI50,[10],1790 nM (inactive)
same,GI50,[11],1320 nM (inactive)
same,GI50,[12],726 nM (active)
same,GI50,[13],1680 nM (inactive)
same,GI50,[14],1980 nM (inactive)
same,GI50,[15],1850 nM (inactive)
same,GI50,[16],1580 nM (inactive)
same,GI50,[17],1070 nM (active)
same,GI50,[18],1890 nM (inactive)
same,GI50,[19],1660 nM (inactive)
same,GI50,[20],1530 nM (inactive)
same,GI50,[21],1840 nM (inactive)
same,GI50,[22],1670 nM (inactive)
same,GI50,[23],1790 nM (inactive)
same,GI50,[24],1720 nM (inactive)
same,GI50,[25],1430 nM (inactive)
same,GI50,[26],2010 nM (inactive)
same,GI50,[27],1510 nM (inactive)
same,GI50,[28],1710 nM (inactive)
same,GI50,[29],1330 nM (inactive)
same,GI50,[30],1820 nM (inactive)
same,GI50,[31],1820 nM (inactive)
same,GI50,[32],2070 nM (inactive)
same,GI50,[33],2230 nM (inactive)
same,GI50,[34],1550 nM (inactive)
same,GI50,[35],1630 nM (inactive)
same,GI50,[36],1560 nM (inactive)
same,GI50,[37],1930 nM (inactive)
same,GI50,[38],1340 nM (inactive)
same,GI50,[39],1510 nM (inactive)
same,GI50,[40],1870 nM (inactive)
same,GI50,[41],1870 nM (inactive)
same,GI50,[42],1900 nM (inactive)
same,GI50,[43],1680 nM (inactive)
same,GI50,[44],1820 nM (inactive)
same,GI50,[45],1670 nM (inactive)
same,GI50,[46],1760 nM (inactive)
same,GI50,[47],1730 nM (inactive)
same,GI50,[48],1820 nM (inactive)
same,GI50,[49],1610 nM (inactive)
same,GI50,[50],1790 nM (inactive)
same,GI50,[51],1700 nM (inactive)
same,GI50,[52],1080 nM (active)
same,GI50,[53],1760 nM (inactive)
same,GI50,[54],1820 nM (inactive)
same,GI50,[55],2290 nM (inactive)
same,GI50,[56],1930 nM (inactive)
